The values below are quoted from earlier work in publication PMC7761982, “FDA-Approved Drugs with Potent In Vitro Antiviral Activity against Severe Acute Respiratory Syndrome Coronavirus 2” (Pharmaceuticals, 2020).

This data set relates to SARS-CoV-2. Particulars: in vitro; read-out: IC50 against SARS-CoV-2 (reported); cited from earlier work.

The term IC50 denotes the concentration at which inhibition is half-maximal. Take `CC(=O)Oc1ccccc1C(=O)Nc1ncc([N+](=O)[O-])s1` [Nitazoxanide]: the IC50 is 2.12 µM.
